Measurements as given in patent US20220017566A1, “TERPINOID DERIVATIVES AND USES THEREOF” (SICHUAN HAISCO PHARMACEUTICAL CO., LTD., priority 2018, published 2022).
Read-outs that look alike come from different tables or passages of the source.

Assays:
NQO1 = NQO1 activity assay in Raw264.7 cell lysates; assay type: cell-based; conditions: Mus musculus; Raw264.7 cells, 48 hours treatment
Experimental: Raw264.7 cells were seeded in DMEM+10% FBS in 96-well plates at a density of 10,000 cells per well. 6 hours after plating, cells were treated with DMSO or test compounds (top dose 100 nM, 1:4 serial dilution, 8-point) for 48 hours. NQO1 activity was then detected in cell lysates using NQO1 activity assay kit (Abeam, Cat#ab184867). NQO1 activity was then plotted against compound concentration, and EC50 values were calculated using four-parameter algorithm in Graphpad Prism.

[1] = system: IFNγ-induced NO production in Raw 264.7 cells; assay: Nitric oxide assay: suppression of IFNγ-induced NO production (Griess nitrite, adjusted to live cell numbers); assay type: cell-based; conditions: Mus musculus, RAW264.7, 2 h pretreatment, IFNγ 10 ng/ml for 24 hours
Experimental: Raw 264.7 cells were seeded in 96-well plates at a density of 30, 000 cells per well in DMEM+10% FBS and incubated overnight. The next day, cell media was replaced by DMEM+2% FBS. Cells were pretreated with DMSO or test compounds (top dose 100 nM, 1:4 serial dilution, 10-point) for 2 hours and then treated with recombinant mouse IFNγ (R&D, Cat# 485-MI-100) at a final concentration of 10 ng/ml for 24 hours. Nitrite levels were measured in culture media as a surrogate for nitric oxide using the Griess Reagent System (Promega, Cat# G2930). Cell viability was determined using CellTiter Glo reagents (Promega, Cat#G7572). The nitrite levels were adjusted to live cell numbers and inhibition percentage was calculated. The inhibition percentage was then plotted against compound concentration, and IC50 values were calculated using four-parameter algorithm in Graphpad Prism.

[2] = Metabolic stability in monkey liver microsomes; assay type: in vitro ADME, cynomolgus monkey
Experimental: (§1) The metabolic stability of test compounds was examined in CD-1 mouse, Sprague Dawley rat, Beagle dog, cynomolgus monkey, and human liver microsomes. Test compound (final concentration 1 μM) was mixed with diluted liver microsomes from each of the 5 species and a small aliquot was taken at 0, 5, 10, 20, 30, and 60 minutes for LC/MS/MS analysis. Intrinsic clearance and half-life were calculated.

[3] = Metabolic stability in dog liver microsomes; assay type: in vitro ADME; conditions: Beagle
Experimental: as §1

[4] = Metabolic stability in mouse liver microsomes; assay type: in vitro ADME, CD-1 mouse; conditions: CD-1
Experimental: as §1

[5] = Pharmacokinetic studies in Sprague Dawley rats (oral gavage and IV); assay type: in vivo; conditions: rat, male SD rats, plasma; for AUC(0-t): read-out: AUC0-24 h; for bioavailability: oral 5 mg/kg vs IV 1 mg/kg, read-out: Bioavailibility F %
Experimental: The pharmacokinetics of test compounds was evaluated in male SD rats when administered via oral gavage and IV injection. For oral dosing, compound was formulated in 0.5% methylcellulose and administered at doses of 5 mg/kg (3 rats per dose level) and volume of 10 mL/kg. For IV dosing, compound was formulated in 5% DMSO/5% Solutol/90% saline and administered to 3 rats at a dose of 1 mg/kg and a volume of 5 mL/kg. The rats were fasted overnight before administration. Plasma samples were collected predose and at 0.5, 1, 3, 6, 9, 12, and 24 hours postdose. The samples were analyzed by LC/MS/MS and the concentration of test compound at each timepoint was determined by linear regression. Pharmacokinetic parameters were calculated from the plasma concentrations using Pheonix WinNonlin.

CYP2C9 = target: T1, CYP2C9 (Homo sapiens, UniProt P11712); assay: CYP450 enzyme inhibition in liver microsomes (cocktail probe incubation); assay type: in vitro ADME; conditions: species not given, 0.05-50 μM tested
T1 construct: studied in liver microsomes of CD-1 mouse, Sprague Dawley rat, Beagle dog, cynomolgus monkey, and human; from tissue; host or cells: liver microsomes
T1 sequence (P11712 whole entry): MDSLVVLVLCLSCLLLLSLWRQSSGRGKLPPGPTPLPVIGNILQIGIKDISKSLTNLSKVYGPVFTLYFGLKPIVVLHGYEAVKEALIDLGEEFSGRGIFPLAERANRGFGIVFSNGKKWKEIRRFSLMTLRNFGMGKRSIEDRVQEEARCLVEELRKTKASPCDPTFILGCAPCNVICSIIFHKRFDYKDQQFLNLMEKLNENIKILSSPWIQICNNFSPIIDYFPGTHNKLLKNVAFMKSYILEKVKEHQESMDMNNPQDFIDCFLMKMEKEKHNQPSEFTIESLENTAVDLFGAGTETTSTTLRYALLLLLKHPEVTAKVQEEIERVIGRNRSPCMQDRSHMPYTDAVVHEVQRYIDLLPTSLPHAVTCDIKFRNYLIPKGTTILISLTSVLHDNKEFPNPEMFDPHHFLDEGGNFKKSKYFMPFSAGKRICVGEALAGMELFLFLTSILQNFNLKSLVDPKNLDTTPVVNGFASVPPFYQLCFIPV
Experimental: (§2) The inhibition potential of test compounds towards major drug metabolizing CYP450 enzymes was studied in liver microsomes of CD-1 mouse, Sprague Dawley rat, Beagle dog, cynomolgus monkey, and human. The inhibition of CYP1A2, CYP2C9, CYP2C19, CYP2D6, and CYP3A4 was assessed using CYP450 specific probe reactions in a cocktail incubation. Seven concentrations of test compounds (0.05, 0.15, 0.5, 1.5, 5, 15, and 50 μM) were evaluated. In addition, known inhibitors for each probe reaction were included as positive controls and incubated at a single concentration above their respective IC50.

CYP1A2 = target: T2, CYP1A2 (Homo sapiens, UniProt P05177); assay: as above; assay type: in vitro ADME; conditions: species not given, 0.05-50 μM tested
T2 construct: studied in liver microsomes of CD-1 mouse, Sprague Dawley rat, Beagle dog, cynomolgus monkey, and human; from tissue; host or cells: liver microsomes
T2 sequence (P05177 1-516): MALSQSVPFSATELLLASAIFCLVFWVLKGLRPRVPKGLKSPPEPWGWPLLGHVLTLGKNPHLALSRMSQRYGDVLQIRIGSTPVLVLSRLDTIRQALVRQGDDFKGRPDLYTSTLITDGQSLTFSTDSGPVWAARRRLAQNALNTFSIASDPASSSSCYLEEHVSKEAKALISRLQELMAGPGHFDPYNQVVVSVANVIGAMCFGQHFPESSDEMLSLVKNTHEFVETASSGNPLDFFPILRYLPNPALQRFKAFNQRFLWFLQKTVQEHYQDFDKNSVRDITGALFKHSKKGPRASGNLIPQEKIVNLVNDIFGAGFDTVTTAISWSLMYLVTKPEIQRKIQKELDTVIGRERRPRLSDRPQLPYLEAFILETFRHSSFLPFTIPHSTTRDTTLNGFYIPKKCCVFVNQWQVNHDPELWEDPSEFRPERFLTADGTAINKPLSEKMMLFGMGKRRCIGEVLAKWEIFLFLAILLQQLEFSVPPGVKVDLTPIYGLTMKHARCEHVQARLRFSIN
Experimental: as §2

CYP2D6 = target: T3, CYP2D6 (Homo sapiens, UniProt P10635); assay: as above; assay type: in vitro ADME; conditions: species not given, 0.05-50 μM tested
T3 construct: studied in liver microsomes of CD-1 mouse, Sprague Dawley rat, Beagle dog, cynomolgus monkey, and human; from tissue; host or cells: liver microsomes
T3 sequence (P10635 whole entry): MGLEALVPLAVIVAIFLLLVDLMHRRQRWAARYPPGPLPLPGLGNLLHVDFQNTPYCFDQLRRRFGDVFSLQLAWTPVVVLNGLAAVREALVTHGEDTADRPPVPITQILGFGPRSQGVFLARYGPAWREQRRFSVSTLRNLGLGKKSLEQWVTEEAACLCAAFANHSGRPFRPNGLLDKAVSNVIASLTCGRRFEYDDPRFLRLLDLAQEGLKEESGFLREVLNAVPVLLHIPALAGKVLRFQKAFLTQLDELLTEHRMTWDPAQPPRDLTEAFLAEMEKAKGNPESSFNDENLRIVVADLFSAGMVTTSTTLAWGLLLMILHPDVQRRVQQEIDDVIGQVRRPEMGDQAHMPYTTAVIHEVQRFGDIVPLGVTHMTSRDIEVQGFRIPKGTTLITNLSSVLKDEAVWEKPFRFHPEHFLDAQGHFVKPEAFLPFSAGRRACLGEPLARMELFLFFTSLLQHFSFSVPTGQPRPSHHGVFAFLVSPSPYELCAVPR
Experimental: as §2

CYP3A4 = target: T4, CYP3A4 (Homo sapiens, UniProt P08684); assay: as above; assay type: in vitro ADME; conditions: species not given, 0.05-50 μM tested
T4 construct: studied in liver microsomes of CD-1 mouse, Sprague Dawley rat, Beagle dog, cynomolgus monkey, and human; from tissue; host or cells: liver microsomes
T4 sequence (P08684 whole entry): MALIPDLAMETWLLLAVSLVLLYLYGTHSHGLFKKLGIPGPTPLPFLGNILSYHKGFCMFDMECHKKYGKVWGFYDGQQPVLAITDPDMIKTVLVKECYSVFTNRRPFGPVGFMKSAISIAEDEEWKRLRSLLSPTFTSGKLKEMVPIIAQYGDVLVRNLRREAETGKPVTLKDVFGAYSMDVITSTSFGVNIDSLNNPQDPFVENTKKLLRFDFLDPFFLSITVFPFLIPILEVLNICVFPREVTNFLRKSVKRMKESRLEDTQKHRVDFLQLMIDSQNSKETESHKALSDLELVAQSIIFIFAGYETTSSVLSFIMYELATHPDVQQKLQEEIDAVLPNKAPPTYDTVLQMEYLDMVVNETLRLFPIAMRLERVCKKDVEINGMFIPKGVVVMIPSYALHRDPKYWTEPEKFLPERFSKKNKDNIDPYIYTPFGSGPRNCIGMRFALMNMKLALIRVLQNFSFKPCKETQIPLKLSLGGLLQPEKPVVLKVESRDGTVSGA
Experimental: as §2

CYP2C19 = target: T5, CYP2C19 (Homo sapiens, UniProt P33261); assay: as above; assay type: in vitro ADME; conditions: species not given, 0.05-50 μM tested
T5 construct: studied in liver microsomes of CD-1 mouse, Sprague Dawley rat, Beagle dog, cynomolgus monkey, and human; from tissue; host or cells: liver microsomes
T5 sequence (P33261 whole entry): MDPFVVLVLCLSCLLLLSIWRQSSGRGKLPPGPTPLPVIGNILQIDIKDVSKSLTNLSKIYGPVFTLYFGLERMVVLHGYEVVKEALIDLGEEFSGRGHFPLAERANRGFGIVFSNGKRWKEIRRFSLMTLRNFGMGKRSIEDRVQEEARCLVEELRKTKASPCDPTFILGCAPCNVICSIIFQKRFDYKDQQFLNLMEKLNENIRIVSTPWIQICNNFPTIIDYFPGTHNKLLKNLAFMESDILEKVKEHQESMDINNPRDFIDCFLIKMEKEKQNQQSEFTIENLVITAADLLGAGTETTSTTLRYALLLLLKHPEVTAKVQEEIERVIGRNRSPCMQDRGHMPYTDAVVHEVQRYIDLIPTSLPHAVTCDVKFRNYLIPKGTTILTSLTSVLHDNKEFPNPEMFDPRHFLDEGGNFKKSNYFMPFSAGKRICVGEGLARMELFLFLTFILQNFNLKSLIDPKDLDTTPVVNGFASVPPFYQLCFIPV
Experimental: as §2

[6] = Metabolic stability in human liver microsomes; assay type: in vitro ADME
Experimental: as §1

[7] = Metabolic stability in rat liver microsomes; assay type: in vitro ADME; conditions: Sprague Dawley
Experimental: as §1

Compound | EC50 (NQO1) | IC50 [1] | CLint scaled at 1 μM [2] | half-life at 1 μM [2] | CLint scaled at 1 μM [3] | half-life at 1 μM [3] | CLint scaled at 1 μM [4] | half-life at 1 μM [4] | C0 ([5]; IV (1 mg/kg)) | clearance ([5]; IV (1 mg/kg)) | half-life ([5]; IV (1 mg/kg)) | IC50 (CYP2C9) | IC50 (CYP1A2) | IC50 (CYP2D6) | IC50 (CYP3A4) | IC50 (CYP2C19) | CLint scaled at 1 μM [6] | half-life at 1 μM [6] | CLint scaled at 1 μM [7] | half-life at 1 μM [7] | further results
C/S(CC(=O)N[C@]12CCC(C)(C)C[C@H]1[C@H]1C(=O)C=C3[C@@]4(C)C=C(C#N)C(=O)C(C)(C)[C@@H]4CC[C@@]3(C)[C@]1(C)CC2)=N\C#N (stereo partly drawn) [Example 5, N-((4aS,6aR,6bS,8aR,12aS,14aR,14bS)-11-cyano-2,2,6a,6b,9,9,12a-heptamethyl-10,14-dioxo-1,3,4,5,6,6a,6b,7,8,8a,9,10,12a,14,14a,14b-hexadecahydropicen-4a(2H)-yl)-2-((E)-N-cyano-S-methylsulfinimidoyl)acetamide] | 0.01 to 0.1 µM | < 0.01 µM |  |  |  |  |  |  |  |  |  |  |  |  |  |  |  |  |  |  | 
CC(=NC#N)NC[C@]12CCC(C)(C)C[C@H]1[C@H]1C(=O)C=C3[C@@]4(C)C=C(C#N)C(=O)C(C)(C)[C@@H]4CC[C@@]3(C)[C@]1(C)CC2 [Example 4, N′-cyano-N-(((4aS,6aR,6bS,8aR,12aS,14aR,14bS)-11-cyano-2,2,6a,6b,9,9,12a-heptamethyl-10,14-dioxo-1,3,4,5,6,6a,6b,7,8,8a,9,10,12a,14,14a,14b-hexadecahydropicen-4a(2H)-yl)methyl)acetimidamide] | 0.01 to 0.1 µM | < 0.01 µM | 104 mL/min/kg | 18.1 min | 101 mL/min/kg | 19.7 min | 147 mL/min/kg | 37.3 min | 747 ng/mL | 50.9 mL/min/kg | 192 min | 1.6 µM | > 50 µM | 2.2 µM | 3.3 µM | 4.5 µM | 34.2 mL/min/kg | 36.5 min | 38.8 mL/min/kg | 64.3 min | AUC(0-t) ([5]; IV (1 mg/kg)): 292 ng·h/mL; Cmax ([5]; Oral (5 mg/kg)): 51 ng/mL; half-life ([5]; Oral (5 mg/kg)): 174 min; AUC(0-t) ([5]; Oral (5 mg/kg)): 214 ng·h/mL; bioavailability [5]: 14.6%
CC1(C)C(=O)C(C#N)=C[C@]2(C)C3=CC(=O)[C@@H]4[C@@H]5C[C@@](C)(c6nnc(C(N)=O)o6)CC[C@]5(C)CC[C@@]4(C)[C@]3(C)CC[C@@H]12 [Example 25, 5-((2S,4aS,6aR,6bS,8aR,12aS,14aR,14bS)-11-cyano-2,4a,6a,6b,9,9,12a-heptamethyl-10,14-dioxo-1,2,3,4,4a,5,6,6a,6b,7,8,8a,9,10,12a,14,14a,14b-octadecahydropicen-2-yl)-1,3,4-oxadiazole-2-carboxamide] | 0.01 to 0.1 µM | < 0.01 µM | 294 mL/min/kg | 6.4 min | 58.4 mL/min/kg | 34.2 min | 289 mL/min/kg | 19 min | 1300 ng/mL | 63.3 mL/min/kg | 84 min | 6.9 µM | > 50 µM | > 50 µM | 6.6 µM | > 50 µM | 96.2 mL/min/kg | 13 min | 87.2 mL/min/kg | 28.6 min | AUC(0-t) ([5]; IV (1 mg/kg)): 263 ng·h/mL; Cmax ([5]; Oral (5 mg/kg)): 32 ng/mL; half-life ([5]; Oral (5 mg/kg)): 78 min; AUC(0-t) ([5]; Oral (5 mg/kg)): 102 ng·h/mL; bioavailability [5]: 7.8%
CC1(C)C(=O)C(C#N)=C[C@]2(C)C3=CC(=O)[C@@H]4[C@@H]5C[C@@](C)(C#N)CC[C@]5(C)CC[C@@]4(C)[C@]3(C)CC[C@@H]12 [Example 2, (2S,4aS,6aR,6bS,8aR,12aS,14aR,14bS)-2,4a,6a,6b,9,9,12a-heptamethyl-10,14-dioxo-1,2,3,4,4a,5,6,6a,6b,7,8,8a,9,10,12a,14,14a,14b-octadecahydropicene-2,11-dicarbonitrile] | < 0.01 µM |  | 782 mL/min/kg | 2.4 min | 313 mL/min/kg | 6.4 min | 1750 mL/min/kg | 3.1 min | 500 ng/mL | 53 mL/min/kg | 72 min | 2.2 µM | > 50 µM | 20.2 µM | 1.7 µM | 25.4 µM | 397 mL/min/kg | 3.1 min | 157 mL/min/kg | 15.9 min | AUC(0-t) ([5]; IV (1 mg/kg)): 314 ng·h/mL; Cmax ([5]; Oral (5 mg/kg)): 177 ng/mL; half-life ([5]; Oral (5 mg/kg)): 78 min; AUC(0-t) ([5]; Oral (5 mg/kg)): 521 ng·h/mL; bioavailability [5]: 33.2%
CC1(C)C(=O)C(C#N)=C[C@]2(C)C3=CC(=O)[C@@H]4[C@@H]5C[C@@](C)(N6CCC(O)C6)CC[C@]5(C)CC[C@@]4(C)[C@]3(C)CC[C@@H]12 (stereo partly drawn) [Example 20, (4aR,6aS,6bR,8aS,11S,12aS,12bR,14bS)-11-(3-hydroxypyrrolidin-1-yl)-4,4,6a,6b,8a,11,14b-heptamethyl-3,13-dioxo-3,4,4a,5,6,6a,6b,7,8,8a,9,10,11,12,12a,12b,13,14b-octadecahydropicene-2-carbonitrile] | < 0.01 µM | < 0.01 µM |  |  |  |  |  |  |  |  |  | 8.6 µM | > 50 µM | > 50 µM | 3.2 µM | 18.9 µM |  |  |  |  | 
CNC(=NC#N)NC[C@]12CCC(C)(C)C[C@H]1[C@H]1C(=O)C=C3[C@@]4(C)C=C(C#N)C(=O)C(C)(C)[C@@H]4CC[C@@]3(C)[C@]1(C)CC2 [Example 3, 2-cyano-1-(((4aS,6aR,6bS,8aR,12aS,14aR,14bS)-11-cyano-2,2,6a,6b,9,9,12a-heptamethyl-10,14-dioxo-1,3,4,5,6,6a,6b,7,8,8a,9,10,12a,14,14a,14b-hexadecahydropicen-4a(2H)-yl)methyl)-3-methylguanidine] | 0.01 to 0.1 µM | < 0.01 µM | 156 mL/min/kg | 12 min | 81.6 mL/min/kg | 24.5 min | 150 mL/min/kg | 36.5 min |  |  |  | 3.4 µM | > 50 µM | 4.7 µM | 6.7 µM | 17.8 µM | 50.7 mL/min/kg | 24.6 min | 50.3 mL/min/kg | 49.6 min | 
